Reference: the NIST ThermoML archive (doi:10.1016/j.jct.2013.10.031)
± gives the expanded uncertainty stated by the source.

Assay: wn = mass fraction of the nth substance listed
Conditions: Gas, Burnett expansion method

FCC(F)(F)F [1,1,1,2-tetrafluoroethane] + CCC
Conditions	mass density [kg/m3]
272.14 K, 376.9 kPa, w2 = 0.4	12.2714 ± 0.73
272.14 K, 486.9 kPa, w2 = 0.4	16.3457 ± 0.75
275.01 K, 306 kPa, w2 = 0.6	8.178 ± 0.58
275.01 K, 398.5 kPa, w2 = 0.6	10.8743 ± 0.61
275.01 K, 514 kPa, w2 = 0.6	14.4598 ± 0.63
275.02 K, 233.7 kPa, w2 = 0.6	6.1499 ± 0.56
275.03 K, 233.5 kPa, w2 = 0.55	6.3604 ± 0.58
275.04 K, 177.6 kPa, w2 = 0.55	4.7832 ± 0.56
275.04 K, 259 kPa, w2 = 0.65	6.6072 ± 0.55
275.04 K, 397.9 kPa, w2 = 0.55	11.2458 ± 0.63
275.04 K, 513.5 kPa, w2 = 0.55	14.954 ± 0.67
275.05 K, 134.8 kPa, w2 = 0.55	3.597 ± 0.55
275.05 K, 197.5 kPa, w2 = 0.65	4.9688 ± 0.53
275.05 K, 305.8 kPa, w2 = 0.55	8.4571 ± 0.6
275.05 K, 338.2 kPa, w2 = 0.65	8.7857 ± 0.57
275.06 K, 150.2 kPa, w2 = 0.65	3.7365 ± 0.52
275.06 K, 438.6 kPa, w2 = 0.65	11.682 ± 0.58
276.01 K, 525 kPa, w2 = 0.5	16.127 ± 0.68
276.07 K, 240.8 kPa, w2 = 0.5	6.8235 ± 0.6
276.07 K, 314.5 kPa, w2 = 0.5	9.08914 ± 0.64
276.08 K, 138.3 kPa, w2 = 0.5	3.84563 ± 0.58
276.08 K, 182.4 kPa, w2 = 0.5	5.12246 ± 0.58
276.08 K, 408.6 kPa, w2 = 0.5	12.1069 ± 0.68
276.09 K, 131.9 kPa, w2 = 0.4	3.96275 ± 0.63
276.09 K, 173.8 kPa, w2 = 0.4	5.27854 ± 0.64
276.09 K, 228.4 kPa, w2 = 0.4	7.03132 ± 0.66
276.09 K, 299.1 kPa, w2 = 0.4	9.36594 ± 0.68
276.09 K, 389.5 kPa, w2 = 0.4	12.4758 ± 0.72
276.09 K, 503.4 kPa, w2 = 0.4	16.618 ± 0.74
276.23 K, 613 kPa, w2 = 0.45	19.9443 ± 0.76
276.24 K, 369.2 kPa, w2 = 0.45	11.24 ± 0.67
276.25 K, 215.6 kPa, w2 = 0.45	6.3345 ± 0.62
276.25 K, 282.9 kPa, w2 = 0.45	8.43787 ± 0.64
276.25 K, 478.6 kPa, w2 = 0.45	14.9718 ± 0.72
276.26 K, 163.8 kPa, w2 = 0.45	4.75547 ± 0.61
278.98 K, 613.4 kPa, w2 = 0.55	18.0169 ± 0.75
278.99 K, 431 kPa, w2 = 0.65	11.2429 ± 0.59
279 K, 193.1 kPa, w2 = 0.65	4.7818 ± 0.52
279 K, 253.6 kPa, w2 = 0.65	6.3584 ± 0.53
279 K, 331.6 kPa, w2 = 0.65	8.4549 ± 0.55
279 K, 555.1 kPa, w2 = 0.65	14.9493 ± 0.61
279.04 K, 478.7 kPa, w2 = 0.55	13.5464 ± 0.65
279.05 K, 201 kPa, w2 = 0.6	5.1513 ± 0.53
279.05 K, 264.1 kPa, w2 = 0.6	6.8498 ± 0.55
279.06 K, 152.4 kPa, w2 = 0.6	3.874 ± 0.53
279.06 K, 345.5 kPa, w2 = 0.6	9.1083 ± 0.58
279.06 K, 369.2 kPa, w2 = 0.55	10.1866 ± 0.6
279.06 K, 448.9 kPa, w2 = 0.6	12.1114 ± 0.61
279.06 K, 577.6 kPa, w2 = 0.6	16.1046 ± 0.65
279.07 K, 163.6 kPa, w2 = 0.55	4.3324 ± 0.55
279.07 K, 282.8 kPa, w2 = 0.55	7.6605 ± 0.58
279.08 K, 215.4 kPa, w2 = 0.55	5.7608 ± 0.56
280.01 K, 670.7 kPa, w2 = 0.4	22.729 ± 0.8
280.02 K, 180.8 kPa, w2 = 0.4	5.41974 ± 0.63
280.02 K, 237.8 kPa, w2 = 0.4	7.21933 ± 0.65
280.02 K, 311.5 kPa, w2 = 0.4	9.61644 ± 0.67
280.02 K, 405.9 kPa, w2 = 0.4	12.8096 ± 0.71
280.02 K, 524.7 kPa, w2 = 0.4	17.0629 ± 0.76
280.17 K, 150 kPa, w2 = 0.45	4.28073 ± 0.61
280.17 K, 197.2 kPa, w2 = 0.45	5.70206 ± 0.62
280.17 K, 436.6 kPa, w2 = 0.45	13.4767 ± 0.7
280.18 K, 257.8 kPa, w2 = 0.45	7.59526 ± 0.63
280.18 K, 336.4 kPa, w2 = 0.45	10.1172 ± 0.66
280.18 K, 562.4 kPa, w2 = 0.45	17.9508 ± 0.69
280.2 K, 176.2 kPa, w2 = 0.5	4.88417 ± 0.64
280.2 K, 228 kPa, w2 = 0.5	6.50598 ± 0.63
280.2 K, 295.2 kPa, w2 = 0.5	8.66625 ± 0.66
280.2 K, 382.2 kPa, w2 = 0.5	11.5437 ± 0.69
280.2 K, 490.7 kPa, w2 = 0.5	15.3768 ± 0.75
280.2 K, 626.5 kPa, w2 = 0.5	20.4828 ± 0.77
282.96 K, 514.9 kPa, w2 = 0.6	16.8632 ± 0.73
282.98 K, 397.4 kPa, w2 = 0.6	10.4251 ± 0.89
282.98 K, 629.9 kPa, w2 = 0.6	18.4329 ± 0.21
282.99 K, 232 kPa, w2 = 0.6	5.8957 ± 0.53
282.99 K, 301.9 kPa, w2 = 0.65	7.5146 ± 0.53
282.99 K, 304.4 kPa, w2 = 0.6	7.8397 ± 0.55
282.99 K, 353.3 kPa, w2 = 0.55	9.521 ± 0.59
282.99 K, 510.2 kPa, w2 = 0.65	13.287 ± 0.61
282.99 K, 592.4 kPa, w2 = 0.55	16.8344 ± 0.67
283 K, 155.9 kPa, w2 = 0.55	4.0493 ± 0.54
283 K, 176.1 kPa, w2 = 0.6	4.4337 ± 0.53
283 K, 205.5 kPa, w2 = 0.55	5.3845 ± 0.55
283 K, 230.2 kPa, w2 = 0.65	5.6511 ± 0.52
283 K, 270 kPa, w2 = 0.55	7.1599 ± 0.56
283 K, 393.8 kPa, w2 = 0.65	9.9922 ± 0.56
283 K, 459.5 kPa, w2 = 0.55	12.6599 ± 0.63
283 K, 653.6 kPa, w2 = 0.65	17.6674 ± 0.63
283.01 K, 175 kPa, w2 = 0.65	4.2497 ± 0.51
283.86 K, 174.7 kPa, w2 = 0.4	5.14203 ± 0.62
283.87 K, 229.9 kPa, w2 = 0.4	6.84912 ± 0.63
283.87 K, 301.6 kPa, w2 = 0.4	9.12315 ± 0.65
283.88 K, 393.6 kPa, w2 = 0.4	12.1512 ± 0.68
283.9 K, 510.3 kPa, w2 = 0.4	16.1858 ± 0.73
283.94 K, 655.1 kPa, w2 = 0.4	21.5571 ± 0.77
284.1 K, 397.4 kPa, w2 = 0.45	11.7333 ± 0.65
284.1 K, 515.6 kPa, w2 = 0.45	15.6293 ± 0.7
284.1 K, 662.3 kPa, w2 = 0.45	20.819 ± 0.72
284.11 K, 176.2 kPa, w2 = 0.45	4.96426 ± 0.59
284.11 K, 231.9 kPa, w2 = 0.45	6.61256 ± 0.6
284.11 K, 304.4 kPa, w2 = 0.45	8.80835 ± 0.62
284.11 K, 711.7 kPa, w2 = 0.5	21.5401 ± 0.72
284.12 K, 555.4 kPa, w2 = 0.5	16.1702 ± 0.68
284.13 K, 189.6 kPa, w2 = 0.5	5.13602 ± 0.56
284.13 K, 249.8 kPa, w2 = 0.5	6.84131 ± 0.58
284.13 K, 327.9 kPa, w2 = 0.5	9.11297 ± 0.6
284.13 K, 428.3 kPa, w2 = 0.5	12.139 ± 0.63
287 K, 196.2 kPa, w2 = 0.6	4.8811 ± 0.52
287 K, 768.5 kPa, w2 = 0.65	20.9537 ± 0.65
287.01 K, 258.3 kPa, w2 = 0.6	6.4904 ± 0.53
287.01 K, 274.8 kPa, w2 = 0.65	6.7019 ± 0.52
287.01 K, 311.4 kPa, w2 = 0.55	8.1881 ± 0.56
287.01 K, 338.5 kPa, w2 = 0.6	8.6303 ± 0.55
287.01 K, 406.7 kPa, w2 = 0.55	10.8878 ± 0.59
287.01 K, 527.4 kPa, w2 = 0.55	14.4779 ± 0.63
287.01 K, 571.1 kPa, w2 = 0.6	15.26 ± 0.62
287.01 K, 603.8 kPa, w2 = 0.65	15.7575 ± 0.62
287.01 K, 677.5 kPa, w2 = 0.55	19.2516 ± 0.66
287.01 K, 730.6 kPa, w2 = 0.6	20.2911 ± 0.66
287.02 K, 180 kPa, w2 = 0.55	4.6307 ± 0.54
287.02 K, 209 kPa, w2 = 0.65	5.0401 ± 0.51
287.02 K, 237.2 kPa, w2 = 0.55	6.1576 ± 0.54
287.02 K, 359.7 kPa, w2 = 0.65	8.9115 ± 0.54
287.02 K, 441.6 kPa, w2 = 0.6	11.4756 ± 0.58
287.02 K, 467.8 kPa, w2 = 0.65	11.85 ± 0.57
287.89 K, 145.9 kPa, w2 = 0.4	4.20423 ± 0.6
287.89 K, 192.3 kPa, w2 = 0.4	5.60013 ± 0.61
287.89 K, 253 kPa, w2 = 0.4	7.45965 ± 0.63
287.89 K, 331.1 kPa, w2 = 0.4	9.93648 ± 0.65
287.9 K, 431.5 kPa, w2 = 0.4	13.2354 ± 0.69
287.9 K, 558 kPa, w2 = 0.4	17.6298 ± 0.74
287.93 K, 714.8 kPa, w2 = 0.4	23.4815 ± 0.77
288.06 K, 650.7 kPa, w2 = 0.45	19.9802 ± 0.74
288.07 K, 171.7 kPa, w2 = 0.45	4.76422 ± 0.58
288.07 K, 226.1 kPa, w2 = 0.45	6.34615 ± 0.59
288.07 K, 297 kPa, w2 = 0.45	8.45356 ± 0.61
288.07 K, 388.5 kPa, w2 = 0.45	11.2604 ± 0.64
288.07 K, 505 kPa, w2 = 0.45	14.9994 ± 0.68
288.07 K, 827.4 kPa, w2 = 0.45	26.6134 ± 0.78
288.18 K, 242.5 kPa, w2 = 0.5	6.52495 ± 0.57
288.18 K, 416.8 kPa, w2 = 0.5	11.5774 ± 0.61
288.19 K, 184.1 kPa, w2 = 0.5	4.89841 ± 0.55
288.19 K, 318.7 kPa, w2 = 0.5	8.69128 ± 0.58
288.19 K, 541.6 kPa, w2 = 0.5	15.4214 ± 0.65
288.19 K, 696.9 kPa, w2 = 0.5	20.5413 ± 0.69
291 K, 851.2 kPa, w2 = 0.55	24.7999 ± 0.71
291.01 K, 519.6 kPa, w2 = 0.55	14.0252 ± 0.61
291.01 K, 669.4 kPa, w2 = 0.55	18.65 ± 0.67
291.02 K, 399.8 kPa, w2 = 0.55	10.5472 ± 0.58
291.03 K, 305.7 kPa, w2 = 0.55	7.9316 ± 0.55
291.04 K, 168.3 kPa, w2 = 0.6	4.1049 ± 0.5
291.04 K, 222.1 kPa, w2 = 0.6	5.4582 ± 0.51
291.04 K, 232.6 kPa, w2 = 0.55	5.9647 ± 0.54
291.04 K, 292.1 kPa, w2 = 0.6	7.2581 ± 0.53
